Results published in patent publication EP0748792A1 (priority 1994, dated 1995).

Legend:
[1] = system: white non-linear mice; experiment: Acute toxicity in mice; type: in vivo
Method: The animals were distributed into 7 groups, 6 animals in each group.
The mice were under observation for 14 days. Starting from the dose of 6g/kg in the first 2 hours after the agent administration the intoxication symptoms were observed: inertia, quickened breathing. Then these symptoms passed without consequences. The mice in all groups were practically healthy, no deviations in the state and behavior of the animals were observed.

[2] = system: total acetylating capability of the organism; experiment: Acetylating capability of white rats (sodium sulfacyl acetylation, arylamine content in urine); type: in vivo; conditions: agent 20 mg/kg i.p. 4 days; for Acetylating properties of the organism: Na sulfacyl acetylating in the organism of rats; for Sulfacyl isolation M ± m In acetylated form / Sulfacyl isolation M ± m In free form / Sulfacyl isolation M ± m Total: Na sulfacyl excretion in urine; for % of excretion from the dose In acetylated form / % of excretion from the dose In free form / Concentration in urine In acetylated form / Concentration in urine In free form: Na sulfacyl; for Excretion % from the dose: total Na sulfacyl excretion in urine
Method: It is known that intact animals, receiving sufficient doses of pantothenic acid, have accelerated reactions of arylamine biotransformation. Therefore, there is the possibility to regulate the acetylating processes in the bodies of people and animals. In the examples given below the total acetylating capability of the organism was assessed using the method of quantitative determination of the arylamine content in the urine examined.
As a subject for acetylating, aromatic amines were chosen, as their usage makes it possible to assess both the activity of N-acetylamine transferase and (indirectly) the content of acetyl CoA.
As a subject for examination sodium sulfacyl was chosen. […] 14 animals were included in each group. The examined agent was injected intraperitoneally at a dose of 20 mg/kg. On the 4th day, 4 hours after the last injection of the examined agent, the sodium sulfacyl solution in a dose of 20 mg/kg was injected intraperitoneally. All the rats were separated into exchangeable cages for urine gathering. The collected data were compared with the control groups of animals (group I - only sodium sulfacyl in a dose of 20 mg/kg, and group II - calcium pantothenate).

[3] = system: non-linear white rats; experiment: Subchronic toxicity in rats (2 months); type: in vivo
Method: 70 non-linear white rats of both sexes with average stated mass of 72 ± 5 g, divided into 7 groups, were used in the experiment. The first three groups of animals received ketopantothenate in 0.2 ml of distilled water in doses: 13.2 mg/kg (therapeutic dose of calcium D-pantothenate), 132 and 264 mg/kg (doses 10 and 20 times larger than the therapeutic dose) internally every day during the experiment. The next three groups of animals received the same doses of calcium D-pantothenate under the same conditions for comparison. The 7th group was the control one and included intact animals. The weighing of the animals was carried out once a week. Permanent observation on development and state of rats was carried out. […] The growth of the mass of the rats receiving ketopantothenate in different doses was 3.7 - 6.0 % higher than the growth of the mass of rats from the control group (correspondingly to doses). The growth of the mass of the rats receiving calcium D-pantothenate in comparison with the control group was approximately the same.
When the experiment was over the animals were slaughtering and the internal organs were examined visually.

[4] = system: white non-linear mice; conditions: administered perorally; species not given; cited from earlier work

Molecule | Acetylating properties of the organism [2] | Sulfacyl isolation M ± m In acetylated form ([2]; sulfacyl 20 mg/kg i.p.) | Sulfacyl isolation M ± m In free form ([2]; sulfacyl 20 mg/kg i.p.) | Sulfacyl isolation M ± m Total ([2]; sulfacyl 20 mg/kg i.p.) | % of excretion from the dose In acetylated form ([2]; rats) | % of excretion from the dose In free form ([2]; rats) | Concentration in urine In acetylated form ([2]; rats) | Concentration in urine In free form ([2]; rats) | Excretion % from the dose [2] | Mass Final ([3]; rat, in vivo, 13.2 mg/kg) | Mass growth during the experiment ([3]; rat, in vivo, 13.2 mg/kg) | Mass growth during the experiment % to the control ([3]; rat, in vivo, 13.2 mg/kg) | Mass Final ([3]; rat, in vivo, 132 mg/kg) | Mass growth during the experiment ([3]; rat, in vivo, 132 mg/kg) | Mass growth during the experiment % to the control ([3]; rat, in vivo, 132 mg/kg) | Mass Final ([3]; rat, in vivo, 264 mg/kg) | Mass growth during the experiment ([3]; rat, in vivo, 264 mg/kg) | Mass growth during the experiment % to the control ([3]; rat, in vivo, 264 mg/kg) | further results
calcium ketopantothenate [Ca ketopantothenate] | 25.9 | 0.73 ± 0.05 | 2.09 ± 0.17 | 2.82 ± 0.19 | 23.1 ± 1.8% | 66.1 ± 3.2% | 0.221 mg/mL | 0.63 mg/mL | 89.2% | 187.6 ± 12.5 | 116.6 ± 8.2 g | 103.7% | 193.6 ± 17.3 | 119.3 ± 10.3 g | 106.0% | 190.1 ± 21.0 | 117.6 ± 11.0 g | 104.5% | dose from which intoxication symptoms (inertia, quickened breathing) were observed ([1]; mice, single internal dose, first 2 hours after administration, symptoms passed without consequences): ≥ 6000 mg/kg; dose that was not toxic ([1]; mouse, in vivo, po, 336 h): 8000 mg/kg; total acetylating capability of the organism of white rats (N-acetylation of aromatic amines) ([2]; rats): increased significantly; excretion of acetylated product in comparison with the control group ([2]; rats, sulfacyl 20 mg/kg i.p.): tripled; excretion of free product, lower than the control group ([2]; rats, sulfacyl 20 mg/kg i.p.): 10%; irritation of internal organs (visual examination) ([3]; rat, in vivo): No irritation; toxicity when used over a prolonged period ([3]; rats, 13.2, 132 and 264 mg/kg internally every day, 2 months): not toxic
CC(C)(CO)[C@@H](O)C(=O)NCCC(=O)O [Ca D-pantothenate, calcium D-pantothenate, reference compound] | 24.0 | 0.67 ± 0.04 | 2.12 ± 0.09 | 2.79 ± 0.19 | 22.3 ± 1.8% | 70.7 ± 6.0% | 0.172 mg/mL | 0.54 mg/mL | 93.0% | 187.5 ± 18.4 | 117.2 ± 7.7 g | 104.2% | 193.0 ± 14.6 | 118.7 ± 10.4 g | 105.3% | 186.1 ± 16.2 | 114.9 ± 8.8 g | 102.2% | LD50 [4]: 5920 mg/kg
